From patent US20240000885A1 (VANDERBILT UNIVERSITY, published 2024)
Like-named read-outs stand apart in the source and are kept apart here.

What was measured:
[1] = target: interaction of MHV M tail with MYO5B(ABCDE) (UniProt P03415+Q9ULV0); assay type: cell-based, Mouse Hepatitis Virus (MHV)
[2] = target: interaction of MHV M-GFP with Cherry-MYO5B+D tail (902T) in A549 cells (UniProt P03415+Q9ULV0); assay type: cell-based, human
pAD-MYO5B(ABCDE) = target: T1, pAD-MYO5B(ABCDE) (human, UniProt Q9ULV0 1235-1439); test: binary yeast 2-hybrid
T1 construct: also called MYO5B ABCDE exons; construct containing just the ABCDE exons
T1 sequence: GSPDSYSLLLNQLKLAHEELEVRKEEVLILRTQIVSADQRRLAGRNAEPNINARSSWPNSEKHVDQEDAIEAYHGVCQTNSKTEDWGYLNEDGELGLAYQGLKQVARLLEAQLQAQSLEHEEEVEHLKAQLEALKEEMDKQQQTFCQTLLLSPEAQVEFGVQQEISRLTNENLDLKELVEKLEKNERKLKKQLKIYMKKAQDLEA

Chain of interaction of MHV M-GFP with Cherry-MYO5B+D tail (902T) in A549 cells (Q9ULV0 902-1848, one chain of several): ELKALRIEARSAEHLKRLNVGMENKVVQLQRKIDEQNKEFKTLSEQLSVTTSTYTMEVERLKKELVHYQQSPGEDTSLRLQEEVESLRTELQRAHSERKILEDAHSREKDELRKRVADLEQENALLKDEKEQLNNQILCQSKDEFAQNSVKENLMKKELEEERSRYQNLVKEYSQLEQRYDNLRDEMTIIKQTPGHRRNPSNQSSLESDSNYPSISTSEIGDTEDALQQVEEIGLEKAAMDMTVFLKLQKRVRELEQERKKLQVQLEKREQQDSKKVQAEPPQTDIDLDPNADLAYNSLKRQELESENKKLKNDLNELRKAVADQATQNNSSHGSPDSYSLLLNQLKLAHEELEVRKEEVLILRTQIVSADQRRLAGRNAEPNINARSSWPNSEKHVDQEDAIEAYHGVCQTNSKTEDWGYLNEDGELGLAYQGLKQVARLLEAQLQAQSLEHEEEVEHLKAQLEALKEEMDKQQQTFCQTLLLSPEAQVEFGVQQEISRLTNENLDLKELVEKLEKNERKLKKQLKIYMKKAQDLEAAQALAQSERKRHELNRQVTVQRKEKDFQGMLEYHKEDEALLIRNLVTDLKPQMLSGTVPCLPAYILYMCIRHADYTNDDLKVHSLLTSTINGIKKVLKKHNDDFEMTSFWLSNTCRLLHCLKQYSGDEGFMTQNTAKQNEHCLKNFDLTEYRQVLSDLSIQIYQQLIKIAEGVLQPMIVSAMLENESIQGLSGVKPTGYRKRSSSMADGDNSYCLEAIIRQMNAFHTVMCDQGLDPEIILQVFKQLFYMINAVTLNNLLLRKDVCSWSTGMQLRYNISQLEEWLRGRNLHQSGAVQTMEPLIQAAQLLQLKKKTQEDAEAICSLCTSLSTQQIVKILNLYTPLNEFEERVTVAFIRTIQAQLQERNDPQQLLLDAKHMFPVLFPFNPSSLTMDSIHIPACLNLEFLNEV

## CNC(=C[N+](=O)[O-])NCCSCc1csc(CN(C)C)n1 [Nizatidine]
[1]
  identified as hit in initial yeast 2-hybrid screen (loss of b-galactosidase activity): hits
[2]
  effect on colocalization of MHV M-GFP with ch-MYO5B+D 902 Tail: disrupts the colocalization
  inhibition of the interaction between MHV M and MYO5B+D: showed inhibition
  lowest concentration causing loss of localization between MHV M and MYO5B+D: 10 pM
  lowest concentration that disrupted co-localization of MHV M-GFP and Cherry-MYO5B+D tail: 100 µM
  lowest dose that disrupted co-localization of MHV M with MYO5B+D: 100 pM

## NC(N)=Nc1nc(CSCCC(N)=NS(N)(=O)=O)cs1 [Famotidine]
[2]
  effect on the co-localization of MHV M with MYO5B+D: no effect

## CN1Cc2c(N)cccc2C(c2ccccc2)C1 (centres unmarked) [Nomifensine]
[1]; 10 μM, 24 hours
  identified as hit in initial yeast 2-hybrid screen (loss of b-galactosidase activity): hits
[2]
  inhibition of the interaction between MHV M and MYO5B+D: did not alter the interaction

## CN/C(=N/CCSCc1nc[nH]c1C)NC#N [Cimetidine]
[2]
  effect on the co-localization of MHV M with MYO5B+D: no effect

## Amiodorone
[1]; 10 μM, 24 hours
  identified as hit in initial yeast 2-hybrid screen (loss of b-galactosidase activity): hits
[2]
  inhibition of the interaction between MHV M and MYO5B+D: showed inhibition

## O=C(O)Cc1ccccc1Nc1c(Cl)cccc1Cl [Diclofenac]
[1]; 10 μM, 24 hours
  identified as hit in initial yeast 2-hybrid screen (loss of b-galactosidase activity): hits
[2]
  inhibition of the interaction between MHV M and MYO5B+D: more equivocal effects

## CS(=O)(=O)Nc1ccc([N+](=O)[O-])cc1Oc1ccccc1 [Nimesulide]
[1]
  identified as hit in initial yeast 2-hybrid screen (loss of b-galactosidase activity): hits
[2]
  inhibition of the interaction between MHV M and MYO5B+D: more equivocal effects

B1: MHV M tail with deletion of the terminal 2 amino acids (other)
chain: SIRLFIRTGSWWSFNPETNNLMCIDMKGTVYVRPIIEDYHTLTATIIRGHLYMQGVKLGTGFSLSDLPAYVTVAKVSHLCTYKRAFLDKVDGVSGFAVYVKSKVGNYRLPSNKPSGADTALL
pAD-MYO5B(ABCDE)
  binding result: binds
